Results as given in ChEMBL document CHEMBL4130359, “Indazole-based ligands for estrogen-related receptor α as potential anti-diabetic agents” (Eur J Med Chem, 2017).
Activity calls are given as the source filed them. The rule behind the calls is not given here.

How the values were obtained:
[1] = test system: Rattus norvegicus; assay: Effect on PPARGC1B gene expression in epididymal white adipose tissue of Zucker rat sub-chronic fa/fa prediabetic model at 10 mg/kg, po qd for 15 days by microarray analysis relative to control; format: functional
[2] = test system: Rattus norvegicus; assay: Effect on NDUFA6 gene expression in epididymal white adipose tissue of Zucker rat sub-chronic fa/fa prediabetic model at 10 mg/kg, po qd for 15 days by microarray analysis relative to control; format: functional
[3] = test system: Rattus norvegicus; assay: Toxicity in Zucker rat sub-chronic fa/fa prediabetic model assessed as serum cholesterol level at 50 mg/kg, po qd for 31 days measured on day 32 (reference value: 295 +/- 91 mg/dl); format: organism-based; settings: in vivo, 744 h
[4] = test system: Rattus norvegicus; assay: Effect on ACOT2 gene expression in epididymal white adipose tissue of Zucker rat sub-chronic fa/fa prediabetic model at 10 mg/kg, po qd for 15 days by microarray analysis relative to control; format: functional
[5] = AUC (0 to 24 hrs) in Zucker rat sub-chronic fa/fa prediabetic model at 1 mg/kg, po qd measured on day 1 post dose; format: ADME, organism-based; design: time < 24 hr, dose 1 mg/kg, route oral; settings: in vivo
[6] = test system: Rattus norvegicus; assay: Effect on GBE1 gene expression in epididymal white adipose tissue of Zucker rat sub-chronic fa/fa prediabetic model at 10 mg/kg, po qd for 15 days by microarray analysis relative to control; format: functional
[7] = test system: Rattus norvegicus; assay: Toxicity in […] chronic ob/ob model assessed as brown adipose tissue weight at 50 mg/kg, po qd for 31 days measured on day 32 (reference value: 0.59 +/- 0.05 g); format: organism-based; settings: in vivo, 744 h
[8] = test system: Rattus norvegicus; assay: Toxicity in […] model assessed as serum ALT level at 10 mg/kg, po qd for 31 days measured on day 32 (reference value: 127 +/- 9 U/L); format: organism-based; settings: in vivo, 744 h
[9] = Terminal half life in […] at 15 mg/kg administered via oral gavage by LC-MS analysis; format: ADME, organism-based; settings: in vivo, read-out: beta t1/2 (converted)
[10] = test system: Rattus norvegicus; assay: Effect on Ckmt1 gene expression in epididymal white adipose tissue of Zucker rat sub-chronic fa/fa prediabetic model at 10 mg/kg, po qd for 15 days by microarray analysis relative to control; format: functional
[11] = Drug uptake in plasma of Zucker rat sub-chronic fa/fa prediabetic model at 12.5 mg/kg, po qd for 11 days; format: ADME, organism-based
[12] = test system: Rattus norvegicus; assay: Effect on PRKD3 gene expression in epididymal white adipose tissue of Zucker rat sub-chronic fa/fa prediabetic model at 10 mg/kg, po qd for 15 days by microarray analysis relative to control; format: functional
[13] = test system: Rattus norvegicus; assay: Toxicity in Zucker rat sub-chronic fa/fa prediabetic model assessed as serum triglyceride level at 50 mg/kg, po qd for 31 days measured on day 32 (reference value: 1382 +/- 268 mg/dl); format: organism-based; settings: in vivo, 744 h
[14] = test system: Rattus norvegicus; assay: Antidiabetic activity in Zucker rat sub-chronic fa/fa prediabetic model assessed as reduction in blood glucose AUC (0 to 120 min) at 10 mg/kg, po qd for 31 days measured on day 29 post dose by OGTT relative to control; format: functional; design: scale not given: the % may be the effect or the level left
[15] = test system: Rattus norvegicus; assay: Toxicity in […] model assessed as liver weight at 3 mg/kg, po qd for 31 days measured on day 32 (reference value: 2.77 +/- 0.16 g); format: organism-based; settings: in vivo, 744 h
[16] = AUC (0 to 24 hrs) in Zucker rat sub-chronic fa/fa prediabetic model at 3 mg/kg, po qd measured on day 1 post dose; format: ADME, organism-based; design: time < 24 hr, dose 3 mg/kg, route oral; settings: in vivo
[17] = test system: Rattus norvegicus; assay: Toxicity in […] chronic ob/ob model assessed as serum triglyceride level at 3 mg/kg, po qd for 31 days measured on day 32 (reference value: 329 +/- 36 mg/dl); format: organism-based; settings: in vivo, 744 h
[18] = Cmax in Sprague-Dawley rat at 10 mg/kg administered via oral gavage by LC-MS analysis; format: ADME, organism-based; design: dose 10 mg/kg, route oral; settings: in vivo
[19] = test system: Rattus norvegicus; assay: Increase in ACADM mRNA expression in epididymal white adipose tissue of Zucker rat sub-chronic fa/fa prediabetic model at 10 mg/kg, po qd for 15 days by RT-PCR method; format: functional, organism-based
[20] = target: Retinoic acid receptor RXR-beta (Homo sapiens, UniProt P28702); assay: Antagonist activity at recombinant GST-tagged human RXRbeta LBD assessed as inhibition of all-trans-retinoic acid-induced fluorescein-labeled coactivator peptide recruitment preincubated with enzyme followed by coactivator addition by LanthaScreen TR-FRET assay
[21] = test system: Rattus norvegicus; assay: Antidiabetic activity in Zucker rat sub-chronic fa/fa prediabetic model assessed as serum adiponectin level at 3 mg/kg, po qd for 4 days by ELISA (reference value: 9.1%); format: functional
[22] = Cmax in […] chronic ob/ob model at 3 mg/kg, po qd for 28 days measured on day 28 post last dose; format: ADME, organism-based; design: dose 3 mg/kg, route oral; settings: in vivo
[23] = test system: Rattus norvegicus; assay: Toxicity in Zucker rat sub-chronic fa/fa prediabetic model assessed as serum cholesterol level at 1 mg/kg, po qd for 31 days measured on day 32 (reference value: 295 +/- 91 mg/dl); format: organism-based; settings: in vivo, 744 h
[24] = test system: Rattus norvegicus; assay: Effect on NR1H2 gene expression in epididymal white adipose tissue of Zucker rat sub-chronic fa/fa prediabetic model at 10 mg/kg, po qd for 15 days by microarray analysis relative to control; format: functional
[25] = test system: Rattus norvegicus; assay: Toxicity in Zucker rat sub-chronic fa/fa prediabetic model assessed as heart weight at 3 mg/kg, po qd for 31 days measured on day 32 (reference value: 1.19 +/- 0.04 g); format: organism-based; settings: in vivo, 744 h
[26] = test system: Rattus norvegicus; assay: Toxicity in […] model assessed as serum AST level at 50 mg/kg, po qd for 31 days measured on day 32 (reference value: 180 +/- 26 U/L); format: organism-based; settings: in vivo, 744 h
[27] = test system: Rattus norvegicus; assay: Effect on NDUFA5 gene expression in epididymal white adipose tissue of Zucker rat sub-chronic fa/fa prediabetic model at 10 mg/kg, po qd for 15 days by microarray analysis relative to control; format: functional
[28] = AUC (0 to 24 hrs) in Zucker rat sub-chronic fa/fa prediabetic model at 50 mg/kg, po qd for 26 days measured on day 26 post last dose; format: ADME, organism-based; design: dose 50 mg/kg, time < 24 hr, route oral; settings: in vivo
[29] = Cmax in Zucker rat sub-chronic fa/fa prediabetic model at 50 mg/kg, po qd for 26 days measured on day 26 post last dose; format: ADME, organism-based; design: dose 50 mg/kg, route oral; settings: in vivo
[30] = test system: Rattus norvegicus; assay: Toxicity in Zucker rat sub-chronic fa/fa prediabetic model assessed as heart weight at 1 mg/kg, po qd for 31 days measured on day 32 (reference value: 1.19 +/- 0.04 g); format: organism-based; settings: in vivo, 744 h
[31] = test system: Rattus norvegicus; assay: Toxicity in Zucker rat sub-chronic fa/fa prediabetic model assessed as epididymal white adipose tissue weight at 50 mg/kg, po qd for 31 days measured on day 32 (reference value: 13.9 +/- 0.6 g); format: organism-based; settings: in vivo, 744 h
[32] = Drug uptake in muscle of Zucker rat sub-chronic fa/fa prediabetic model at 12.5 mg/kg, po qd for 11 days; format: ADME, organism-based, Muscle tissue; settings: read-out: Drug uptake
[33] = test system: Rattus norvegicus; assay: Effect on CD3D gene expression in epididymal white adipose tissue of Zucker rat sub-chronic fa/fa prediabetic model at 10 mg/kg, po qd for 15 days by microarray analysis relative to control; format: functional
[34] = test system: Rattus norvegicus; assay: Effect on IKBKB gene expression in epididymal white adipose tissue of Zucker rat sub-chronic fa/fa prediabetic model at 10 mg/kg, po qd for 15 days by microarray analysis relative to control; format: functional

Retinoic acid receptor RXR-beta, sequence (P28702 whole entry, the tested form may be a part): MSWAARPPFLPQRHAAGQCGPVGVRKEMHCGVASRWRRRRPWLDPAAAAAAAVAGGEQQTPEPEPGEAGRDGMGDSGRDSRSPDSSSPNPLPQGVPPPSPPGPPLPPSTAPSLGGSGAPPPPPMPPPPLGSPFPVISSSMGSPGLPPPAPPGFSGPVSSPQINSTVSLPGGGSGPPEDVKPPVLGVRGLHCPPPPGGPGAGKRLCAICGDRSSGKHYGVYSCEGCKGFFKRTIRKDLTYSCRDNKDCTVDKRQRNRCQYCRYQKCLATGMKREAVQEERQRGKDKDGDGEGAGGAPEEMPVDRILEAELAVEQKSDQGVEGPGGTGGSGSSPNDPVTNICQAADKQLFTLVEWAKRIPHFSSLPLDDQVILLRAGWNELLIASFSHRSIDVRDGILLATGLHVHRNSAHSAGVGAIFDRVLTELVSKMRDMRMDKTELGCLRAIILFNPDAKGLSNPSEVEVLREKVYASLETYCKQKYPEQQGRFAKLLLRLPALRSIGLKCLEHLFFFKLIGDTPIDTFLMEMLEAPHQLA

## CN1CC[C@@H](N2C(=O)S/C(=C\c3ccc4c(cnn4Cc4ccc(Cl)cc4C(F)(F)F)c3)C2=O)[C@H](F)C1
[1]
  fold change (FC): 2.249
[2]
  fold change (FC): 1.277
[3]
  Activity: 203 mg/dL
[4]
  fold change (FC): 1.364
[5]
  AUC(0-t) at 24 h: 1760 ng·h/mL
[6]
  fold change (FC): 1.79
[7]
  Activity: 1.31 g
[8]
  Activity: 135 U/L
[9]
  half-life: 402 min
[10]
  fold change (FC): -1.374
[11]
  concentration at 264 h: 814 ng/mL
[12]
  fold change (FC): -1.247
[13]
  Activity: 198 mg/dL
[14]
  Activity: 55%
[15]
  Activity: 2.65 g
[16]
  AUC(0-t) at 24 h: 5980 ng·h/mL
[17]
  Activity: 223 mg/dL
[18]
  Cmax: 683 ng/mL
[19]
  Activity: Active
[20]
  IC50: > 10 µM
[21]
  Activity: 11.1%
[22]
  Cmax: 223 ng/mL
[23]
  Activity: 328 mg/dL
[24]
  fold change (FC): -1.407
[25]
  Activity: 1.15 g
[26]
  Activity: 199 U/L
[27]
  fold change (FC): 1.568
[28]
  AUC at 24 h: 85900 ng·h/mL
[29]
  Cmax: 7660 ng/mL
[30]
  Activity: 1.16 g
[31]
  Activity: 19.3 g
[32]
  concentration at 264 h: 2820 ng/g
[33]
  fold change (FC): -1.256
[34]
  fold change (FC): -1.241
